Here are results for eleven compounds from patent US10689362B2, “Quinoxaline compounds as type III receptor tyrosine kinase inhibitors” (Development Center for Biotechnology, priority 2016, dated 2020).

Assay [1] addresses CSF-1R kinase (Homo sapiens (Human), UniProt P07333). Nature of the assay: CSF-1R kinase assay (AlphaScreen). Conditions: class symbol. In kind it is biochemical. On the procedure: Inhibition of CSF-1R kinase activity by a test compound disclosed herein was estimated by AlphaScreen (PerkinElmer). […] Reactions were incubated at 30° C. for 45 min and stopped by adding 5 μL of 50 mM EDTA. Analysis of resulting product using an AlphaScreen kit, and counted with Enspire Alpha (PerkinElmer). […] The IC50 values of quinoxaline compounds of this invention against CSF-1R kinase were determined using the GraphPad Prism 5 software.
Background: Bead proximity is the source of the signal in Alpha formats.

The target in assay [2] is c-KIT kinase (Homo sapiens (Human), UniProt P10721). The assay is described as follows: c-KIT kinase assay (radiometric). In kind it is biochemical. In outline: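 Recombinant c-Kit (20 ng) with 2 μg Poly-(Glu4:Tyr1) in MOPS pH 7.0 buffer with MgCl2/MnCl2, 10 μM ATP plus [^33P]-ATP, 4% DMSO final, 60 min at 30° C. Stopped with phosphoric acid, filter-captured and scintillation counted; IC50 from curve fit.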

Assay [3] concerns the target FLT3 kinase (Homo sapiens (Human), UniProt P36888). Nature of the assay: FLT3 kinase assay (radiometric). Conditions: bound. In kind it is biochemical. The essentials:
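Recombinant FLT3 (5 ng) phosphorylating poly(Glu4:Tyr1) (2 μg) with 10 μM ATP plus [^33P]-ATP in MOPS pH 7.0 buffer, 4% DMSO final, 60 min at 30° C. Reaction stopped with phosphoric acid, filter-captured and scintillation-counted; IC50 derived from dose-response.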

For assay [4], the target named is PDGFRβ kinase (Homo sapiens (Human), UniProt P09619). Nature of the assay: PDGFRβ kinase assay (radiometric). In kind it is biochemical. Conditions: bound. In outline: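 Radiometric assay: recombinant PDGFRβ with poly(Glu4:Tyr1) in MOPS pH 7.0 buffer containing Mg2+/Mn2+, 10 μM ATP plus [33P]-ATP, and compound at 4% DMSO final. Incubated 60 min at 30° C, stopped with phosphoric acid, filter-captured and scintillation-counted. IC50 from curve fitting.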

The test system of assay [5] is CSF-1-dependent M-NFS-60 mouse myeloid leukemia cell. The assay is described as follows: M-NFS-60 cell proliferation assay (CellTiter-96). The assay is classed as cell-based. Conditions: Cytotoxicity, M-NFS-60 cells, 72 hours. In outline:
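Growth inhibition was measured as absorbance at 490 nm after 4 h with CellTiter 96 AQueous One reagent. Beforehand, M-NFS-60 cells (2000/well, CSF-1-dependent) were treated with a compound dilution series for 72 h following overnight plating at 37 °C, 5% CO2.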

In assay [6] the test system is MV4-11 human acute myeloid leukemia cell with FLT3-ITD mutation. Nature of the assay: MV4-11 cell proliferation assay (CellTiter-96). The assay is classed as cell-based. Conditions: Cytotoxicity, MV4-11 cells, 72 hours. In outline: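 Growth inhibition read as absorbance at 490 nm after 4 hours with CellTiter96 AQueous One reagent. Before that, FLT3-ITD-dependent MV4-11 cells (6500 cells/well, overnight at 37° C., 5% CO2) received a rising compound concentration series for 72 hours.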

The test system of assay [7] is Kasumi-1 human acute myeloid leukemia cell with c-KIT N822K activating mutation. The assay is described as follows: Kasumi-1 cell proliferation assay (CellTiter-96). The assay is classed as cell-based. Conditions: Cytotoxicity, Kasumi-1 cells, 72 hours. The essentials:
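After 72 h of treatment with a compound dilution series, growth of c-KIT N822K-driven Kasumi-1 cells (64000 per well, plated the day before) was read as 490 nm absorbance. This followed a 4 h incubation with CellTiter96 AQueous One reagent.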

The subject of assay [8] is THP-1 human acute monocytic leukemia cell harboring NRAS G12D mutation. The assay is described as follows: THP-1 cell proliferation assay (counter screen, CellTiter-96). Conditions: Cytotoxicity, THP-1 cells (counter screen), 72 hours. The assay is classed as cell-based. In outline: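 Growth inhibition read as 490 nm absorbance after 4 h with CellTiter96 AQueous One reagent, following 72 h compound exposure at rising concentrations. THP-1 (NRAS G12D) cells plated at 5000 per well and left overnight at 37 °C, 5% CO2 before dosing.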
(In general: The purpose of a counterscreen is to sort out artefacts and off-target activity.)

The subject of assay [9] is osteoclast precursors (osteoclast differentiation). Nature of the assay: Osteoclast tartrate-resistant acid phosphatase assay. In kind it is cell-based. Conditions: 168 h, at 1 μM treatment, 7 days, RANKL and M-CSF, read-out: inhibition activity against osteoclast differentiation. On the procedure:
A serial dilution of test compound was dispensed into a 96-well black clear bottom plate. Compound was diluted by the addition of DMEM media supplemented with 10% characterized fetal bovine serum. Diluted compound was transferred to a 96-well black clear bottom plate. Three thousand osteoclast precursors (Lonza, Walkersville, Md.) were added per well in growth medium containing Receptor Activator of Nuclear Factor Kappa-beta ligand (RANKL) and M-CSF. […] At the end of the incubation period, 50 μL of supernatant from each well was transferred to a clear 96-well plate. Tartrate-resistant acid phosphatase activity in the supernatant samples was determined using an acid phosphatase assay kit (Sigma, St. Louis, Mo.). Absorbance was measured at 550 nm using a plate reader. […] The Inhibition activity against osteoclast differentiation for each compound at 1 μM treatment in duplicate was measured.

FLT3 kinase, sequence (P36888 27-993): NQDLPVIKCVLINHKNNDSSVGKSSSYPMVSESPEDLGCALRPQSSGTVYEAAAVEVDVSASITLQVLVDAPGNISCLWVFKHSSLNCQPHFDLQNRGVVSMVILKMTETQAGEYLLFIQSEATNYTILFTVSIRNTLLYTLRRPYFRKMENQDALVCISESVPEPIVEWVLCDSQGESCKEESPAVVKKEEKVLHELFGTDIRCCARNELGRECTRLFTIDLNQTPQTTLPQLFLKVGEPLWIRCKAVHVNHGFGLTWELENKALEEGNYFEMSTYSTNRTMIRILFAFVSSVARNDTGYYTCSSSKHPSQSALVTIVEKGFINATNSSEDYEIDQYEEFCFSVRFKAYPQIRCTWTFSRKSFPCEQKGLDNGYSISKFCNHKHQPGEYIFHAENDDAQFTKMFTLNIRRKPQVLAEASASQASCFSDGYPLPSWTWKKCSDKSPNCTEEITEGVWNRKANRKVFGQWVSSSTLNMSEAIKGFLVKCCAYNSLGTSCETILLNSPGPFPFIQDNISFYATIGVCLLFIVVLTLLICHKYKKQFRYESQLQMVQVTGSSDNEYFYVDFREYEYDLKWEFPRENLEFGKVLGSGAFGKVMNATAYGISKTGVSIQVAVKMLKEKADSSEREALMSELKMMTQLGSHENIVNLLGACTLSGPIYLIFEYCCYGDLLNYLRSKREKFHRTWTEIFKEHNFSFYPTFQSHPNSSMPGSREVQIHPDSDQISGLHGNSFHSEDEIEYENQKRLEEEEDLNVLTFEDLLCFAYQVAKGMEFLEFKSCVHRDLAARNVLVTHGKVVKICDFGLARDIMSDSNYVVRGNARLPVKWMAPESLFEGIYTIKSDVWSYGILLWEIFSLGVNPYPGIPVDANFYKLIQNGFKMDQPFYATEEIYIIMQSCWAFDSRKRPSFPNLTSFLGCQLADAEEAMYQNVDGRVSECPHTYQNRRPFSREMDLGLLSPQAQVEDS
CSF-1R kinase, sequence (P07333 20-972): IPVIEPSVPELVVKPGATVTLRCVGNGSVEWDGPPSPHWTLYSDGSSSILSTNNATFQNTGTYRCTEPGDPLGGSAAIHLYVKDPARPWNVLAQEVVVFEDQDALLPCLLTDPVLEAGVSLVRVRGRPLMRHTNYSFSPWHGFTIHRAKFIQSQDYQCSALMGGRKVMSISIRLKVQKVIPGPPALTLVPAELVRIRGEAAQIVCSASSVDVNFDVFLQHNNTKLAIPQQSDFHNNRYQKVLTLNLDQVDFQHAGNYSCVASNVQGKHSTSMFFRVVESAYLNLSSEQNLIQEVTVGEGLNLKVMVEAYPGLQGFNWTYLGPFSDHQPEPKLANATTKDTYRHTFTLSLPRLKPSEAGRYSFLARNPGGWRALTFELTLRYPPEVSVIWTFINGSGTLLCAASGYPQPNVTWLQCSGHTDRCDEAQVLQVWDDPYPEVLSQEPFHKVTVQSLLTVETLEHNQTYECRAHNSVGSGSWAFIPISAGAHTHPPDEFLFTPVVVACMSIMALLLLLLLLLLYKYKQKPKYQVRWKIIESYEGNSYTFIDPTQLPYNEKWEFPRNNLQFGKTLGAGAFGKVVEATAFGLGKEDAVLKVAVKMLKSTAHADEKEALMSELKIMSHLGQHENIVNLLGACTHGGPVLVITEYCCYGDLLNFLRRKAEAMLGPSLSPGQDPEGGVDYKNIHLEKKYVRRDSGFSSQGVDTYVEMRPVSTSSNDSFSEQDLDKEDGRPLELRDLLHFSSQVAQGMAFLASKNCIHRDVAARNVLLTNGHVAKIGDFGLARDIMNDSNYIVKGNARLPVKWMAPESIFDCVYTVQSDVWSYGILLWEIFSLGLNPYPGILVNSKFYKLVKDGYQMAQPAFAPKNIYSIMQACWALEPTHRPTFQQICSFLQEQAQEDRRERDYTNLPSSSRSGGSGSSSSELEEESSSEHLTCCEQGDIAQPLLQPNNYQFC
PDGFRβ kinase, sequence (P09619 33-1106): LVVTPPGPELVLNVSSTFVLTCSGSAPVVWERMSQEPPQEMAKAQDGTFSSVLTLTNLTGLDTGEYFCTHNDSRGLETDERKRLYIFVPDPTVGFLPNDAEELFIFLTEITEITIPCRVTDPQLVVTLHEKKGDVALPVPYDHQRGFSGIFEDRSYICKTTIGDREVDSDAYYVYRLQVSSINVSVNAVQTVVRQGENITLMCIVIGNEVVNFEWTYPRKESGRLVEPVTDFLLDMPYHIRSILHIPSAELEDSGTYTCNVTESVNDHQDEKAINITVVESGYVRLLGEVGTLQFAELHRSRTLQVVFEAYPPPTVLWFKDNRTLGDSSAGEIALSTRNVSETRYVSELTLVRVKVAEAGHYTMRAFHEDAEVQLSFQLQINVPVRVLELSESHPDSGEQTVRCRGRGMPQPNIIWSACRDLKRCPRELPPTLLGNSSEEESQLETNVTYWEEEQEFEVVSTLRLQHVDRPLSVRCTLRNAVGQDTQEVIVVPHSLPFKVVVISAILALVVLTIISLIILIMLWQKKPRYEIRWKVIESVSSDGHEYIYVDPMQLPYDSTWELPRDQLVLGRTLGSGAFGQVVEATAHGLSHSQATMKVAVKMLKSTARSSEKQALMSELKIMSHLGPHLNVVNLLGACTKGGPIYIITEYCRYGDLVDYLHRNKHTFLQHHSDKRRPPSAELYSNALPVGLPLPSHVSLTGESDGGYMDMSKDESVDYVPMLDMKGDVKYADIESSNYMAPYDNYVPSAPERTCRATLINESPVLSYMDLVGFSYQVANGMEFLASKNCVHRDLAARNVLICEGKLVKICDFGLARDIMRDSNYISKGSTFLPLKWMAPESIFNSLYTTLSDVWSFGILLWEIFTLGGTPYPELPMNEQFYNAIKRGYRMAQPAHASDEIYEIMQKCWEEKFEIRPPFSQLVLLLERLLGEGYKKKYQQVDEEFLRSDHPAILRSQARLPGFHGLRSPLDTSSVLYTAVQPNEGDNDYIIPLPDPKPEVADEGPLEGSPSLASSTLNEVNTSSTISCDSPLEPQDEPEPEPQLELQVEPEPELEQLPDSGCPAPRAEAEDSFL
c-KIT kinase, sequence (P10721 26-976): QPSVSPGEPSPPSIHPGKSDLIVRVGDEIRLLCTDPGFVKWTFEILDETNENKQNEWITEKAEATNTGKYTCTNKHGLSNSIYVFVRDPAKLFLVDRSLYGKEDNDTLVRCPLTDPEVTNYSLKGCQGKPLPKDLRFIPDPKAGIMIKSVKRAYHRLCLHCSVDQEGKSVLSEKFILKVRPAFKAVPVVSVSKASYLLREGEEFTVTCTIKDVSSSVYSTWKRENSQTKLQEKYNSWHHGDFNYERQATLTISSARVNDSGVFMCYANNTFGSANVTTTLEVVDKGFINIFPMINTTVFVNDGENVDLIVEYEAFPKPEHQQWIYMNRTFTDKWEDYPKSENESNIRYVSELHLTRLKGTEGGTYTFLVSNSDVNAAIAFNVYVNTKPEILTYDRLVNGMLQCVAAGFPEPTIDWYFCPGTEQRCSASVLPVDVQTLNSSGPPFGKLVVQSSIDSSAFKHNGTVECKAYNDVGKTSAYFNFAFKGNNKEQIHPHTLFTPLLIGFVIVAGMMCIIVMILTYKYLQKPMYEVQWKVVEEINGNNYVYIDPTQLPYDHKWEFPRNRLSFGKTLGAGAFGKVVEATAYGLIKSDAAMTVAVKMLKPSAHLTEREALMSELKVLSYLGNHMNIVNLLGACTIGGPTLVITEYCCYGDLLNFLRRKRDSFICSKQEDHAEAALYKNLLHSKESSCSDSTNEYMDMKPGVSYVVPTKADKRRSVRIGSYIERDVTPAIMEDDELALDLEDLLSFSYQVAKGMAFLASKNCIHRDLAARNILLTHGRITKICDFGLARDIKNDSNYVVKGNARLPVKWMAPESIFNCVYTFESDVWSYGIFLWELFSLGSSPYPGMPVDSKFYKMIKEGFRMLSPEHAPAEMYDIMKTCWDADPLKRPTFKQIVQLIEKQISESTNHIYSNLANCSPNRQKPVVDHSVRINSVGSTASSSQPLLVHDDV

Take `COc1cc(Nc2ccc3ncc(N4CCC(N(C)C)CC4)nc3c2C#N)ccc1OCc1cccc(F)c1` [Example 89, 3-(4-(dimethylamino)piperidin-1-yl)-6-((4-((3-fluorobenzyl)oxy)-3-methoxyphenyl)amino)quinoxaline-5-carbonitrile]: the IC50 was less than 100 nM in assay [1]; less than 100 nM in assay [2] (class symbol); more than 1000 nM in assay [3]; more than 1000 nM in assay [4]; less than 300 nM in assay [5]; 1000 to 10000 nM in assay [6]. Besides, the IC50 in assay [7] and in assay [8] was 1000 to 10000 nM in each case. Besides, in assay [9], the inhibition at 1 µM is more than 50%.

With `COc1cc(Nc2ccc3ncc(N4C[C@@H](C)O[C@@H](C)C4)nc3c2C#N)ccc1OCc1ccc(C)nc1` [Example 145, 3-((2S,6R)-2,6-dimethylmorpholino)-6-((3-methoxy-4-((6-methyl-pyridin-3-yl)methoxy)phenyl)amino)quinoxaline-5-carbonitrile], the IC50 in [1] is less than 100 nM; in assay [2] (class symbol), 100 to 300 nM; in assay [3] it was more than 1000 nM; in assay [4], more than 1000 nM; in assay [5] it was less than 300 nM; in assay [6], 1000 to 10000 nM. Further, the IC50 in [7] is 300 to 1000 nM; in assay [8], more than 10000 nM. Further, the inhibition at 1 µM in assay [9] is more than 50%.

For `COc1cc(Nc2ccc3ncc(N4CCOCC4)nc3c2C#N)ccc1OCc1ccc(C)s1` [Example 124, 6-((3-methoxy-4-((5-methylthiophen-2-yl)methoxy)phenyl)amino)-3-morpholinoquinoxaline-5-carbonitrile], the concentration for half-maximal inhibition (IC50) is less than 100 nM in assay [1]; less than 100 nM in assay [2] (class symbol); more than 1000 nM in assay [3]; more than 1000 nM in [4]; less than 300 nM in [5]; 1000 to 10000 nM in [6]. Also, the IC50 in assay [7] lay within 300 to 1000 nM; in assay [8] it was 1000 to 10000 nM. Moreover, in assay [9], the inhibition at 1 µM was more than 50%.

On to `COc1cc(Nc2ccc3ncc(N4CCOCC4)nc3c2C#N)ccc1OCc1cccs1` [Example 127, 6-((3-methoxy-4-(thiophen-2-ylmethoxy)phenyl)amino)-3-morpholinoquinoxaline-5-carbonitrile], for which the IC50 in assay [1] is less than 100 nM; in assay [2] (class symbol), less than 100 nM; in [3] it was more than 1000 nM; in [4], more than 1000 nM; in assay [5], 1000 to 10000 nM; in [6], 1000 to 10000 nM. Also, the IC50 in [7] was 300 to 1000 nM; in assay [8] it was more than 10000 nM. In assay [9], the inhibition at 1 µM was more than 50%.

For `COc1cc(Nc2ccc3ncc(N4CCOCC4)nc3c2C#N)ccc1OCc1ccc(F)c(F)c1` [Example 99, 6-((4-((3,4-difluorobenzyl)oxy)-3-methoxyphenyl)amino)-3-morpholinoquinoxaline-5-carbonitrile], the half-inhibitory concentration (IC50) in [1] was less than 100 nM; in assay [2] (bound), more than 1000 nM; in [3], more than 1000 nM; in [4] it was more than 1000 nM; in assay [5], less than 300 nM; in assay [6] it was more than 10000 nM. Further, the IC50 in [7] and in assay [8] was more than 10000 nM in each case. In addition, the inhibition at 1 µM in [9] is more than 50%.

In the case of `COc1cc(Nc2ccc3ncc(N4CCOCC4)nc3c2C#N)ccc1OCc1ccc(CF)nc1` [Example 110, 6-((4-((6-(fluoromethyl)pyridin-3-yl)methoxy)-3-methoxyphenyl)amino)-3-morpholinoquinoxaline-5-carbonitrile], the IC50 was less than 100 nM in [1]; 100 to 300 nM in assay [2] (class symbol); more than 1000 nM in assay [3]; more than 1000 nM in assay [4]; less than 300 nM in assay [5]; 1000 to 10000 nM in [6]. Further, the concentration for half-maximal inhibition (IC50) in assay [7] was 1000 to 10000 nM; in [8], more than 10000 nM. In [9], the inhibition at 1 µM was more than 50%.

`COc1ccc(COc2ccc(Nc3ccc4ncc(N5CCCC5)nc4c3C#N)cc2OC)cn1` [Example 79, 6-((3-methoxy-4-((6-methoxypyridin-3-yl)methoxy)phenyl)amino)-3-(pyrrolidin-1-yl)quinoxaline-5-carbonitrile]: the IC50 is less than 100 nM in assay [1]; less than 100 nM in [2] (class symbol); more than 1000 nM in [3]; more than 1000 nM in [4]; less than 300 nM in assay [5]; 1000 to 10000 nM in assay [6]. Besides, the IC50 in assay [7] was 300 to 1000 nM; in assay [8], more than 10000 nM. Moreover, the inhibition at 1 µM in [9] was more than 50%.

As for `CCc1ccc(COc2ccc(Nc3ccc4ncc(N5CCOCC5)nc4c3C#N)cc2OC)cn1` [Example 101, 6-((4-((6-ethylpyridin-3-yl)methoxy)-3-methoxyphenyl)amino)-3-morpholinoquinoxaline-5-carbonitrile], the IC50 in [1] is less than 100 nM; in assay [2] (class symbol), less than 100 nM; in [3], more than 1000 nM; in assay [4], more than 1000 nM; in assay [5], less than 300 nM; in [6] it was 1000 to 10000 nM. Further, the concentration for half-maximal inhibition (IC50) was less than 300 nM in assay [7] and more than 10000 nM in assay [8]. The inhibition at 1 µM in [9] was more than 50%.

With `COc1cc(Nc2ccc3ncc(N4CCOCC4)nc3c2C#N)ccc1OCc1ccc(C(F)F)nc1` [Example 111, 6-((4-((6-(difluoromethyl)pyridin-3-yl)methoxy)-3-methoxyphenyl)amino)-3-morpholinoquinoxaline-5-carbonitrile], the IC50 in assay [1] was less than 100 nM; in [2] (class symbol), 100 to 300 nM; in assay [3] it was more than 1000 nM; in assay [4], more than 1000 nM; in assay [5], less than 300 nM; in assay [6], 1000 to 10000 nM. Besides, the IC50 in assay [7] was 300 to 1000 nM; in assay [8], more than 10000 nM. For the same compound, the inhibition at 1 µM in assay [9] was more than 50%.

As for `COc1cc(Nc2ccc3ncc(N(C)C)nc3c2C#N)ccc1OCc1ccc(C)nc1` [Example 133, 3-(dimethylamino)-6-((3-methoxy-4-((6-methylpyridin-3-yl)methoxy)phenyl)amino)quinoxaline-5-carbonitrile], the IC50 was less than 100 nM in assay [1]; less than 100 nM in assay [2] (class symbol); more than 1000 nM in [3]; more than 1000 nM in assay [4]; less than 300 nM in assay [5]; more than 10000 nM in assay [6]. The IC50 in [7] is 300 to 1000 nM; in [8], more than 10000 nM. Moreover, the inhibition at 1 µM in assay [9] was more than 50%.

For the compound `COc1ccc(COc2ccc(Nc3ccc4ncc(N5CCC5)nc4c3C#N)cc2OC)cn1` [Example 86, 3-(azetidin-1-yl)-6-((3-methoxy-4-((6-methoxpyridin-3-yl)methoxy)phenyl)amino)quinoxaline-5-carbonitrile], the 50% inhibitory concentration (IC50) in assay [1] is less than 100 nM; in [2] (class symbol), 100 to 300 nM; in assay [3] it was more than 1000 nM; in assay [4], more than 1000 nM; in assay [5], less than 300 nM; in assay [6], more than 10000 nM. For the same compound, the 50% inhibitory concentration (IC50) in assay [7] is 1000 to 10000 nM; in assay [8], more than 10000 nM. The inhibition at 1 µM in assay [9] was more than 50%.

Broadly, the IC50 is the midpoint of a concentration-inhibition curve. A high value points to weaker potency in that assay. For orientation: inhibition means the percentage by which the read-out fell short of the control.
